Values quoted from earlier work, collected in patent US8980889B2, “Pyrazole derivative” (Mochida Pharmaceutical Co., Ltd., priority 2013, dated 2015).

Legend:
Settings in all cases: U.S. Patent Application No. 2003/0032579
rat = test system: rat
rats = test system: rats
rat brain = test system: rat brain

In the case of `COc1ccc(Cc2nccc3cc(OC)c(OC)cc23)cc1OC` [papaverine], the haloperidol-induced catalepsy (rat) is listed as “increases”, the apomorphine-induced stereotypy (rats) is listed as “decreases” and the “dopamine level in the rat brain” value (rat brain) is listed as “decreases”.
